Test results from ChEMBL document CHEMBL3112584, “Urokinase-type plasminogen activator expression and Rac1/WAVE-2/Arp2/3 pathway are blocked by pterostilbene to suppress cell migration and invasion in MDA-MB-231 cells” (Bioorg Med Chem Lett, 2014).
Activity calls are given as the source filed them. No cut-off for these calls is given here.

Columns and labels:
[1] = Cytotoxicity against human MDA-MB-231 cells assessed as cell viability at 40 uM after 24 hrs by MTT assay relative to control; format: cell-based; details: read-out: Activity
MDA-MB-231 [2] = experiment: Antiinvasion activity in human MDA-MB-231 cells reduction of cell assessed as inhibition of FBS-induced cell invaded to lower surface at 5 uM after 24 hrs; format: functional; details: MDA-MB-231, 24 h
[3] = biological target: Ras-related C3 botulinum toxin substrate 1 (Homo sapiens) (UniProt P63000); experiment: Inhibition of Rac1 in human MDA-MB-231 cells at 10 uM after 30 mins by G-LISA activity assay; format: cell-based
Homo sapiens = species on record: Homo sapiens; experiment: Inhibition of DNA binding of NF-kappaB (unknown origin) on uPA promoter at 10 uM by ChIP assay
[4] = biological target: Urokinase-type plasminogen activator (Homo sapiens) (UniProt P00749); experiment: Inhibition of uPA activity in human MDA-MB-231 cells at 10 uM; format: cell-based; set-up: scale not given: the % may be the effect or the level left
[5] = biological target: Ras-related C3 botulinum toxin substrate 1 (Homo sapiens) (UniProt P63000); experiment: Inhibition of Rac1 in human MDA-MB-231 cells at 5 uM after 30 mins by G-LISA activity assay; format: cell-based
MDA-MB-231 [6] = experiment: Inhibition of NF-kappaB activation in human MDA-MB-231 cells after 24 hrs by luciferase assay; format: cell-based
MDA-MB-231 [7] = experiment: Inhibition of cell migration in human MDA-MB-231 cells assessed as reduction of cell migrated into scratched area at 10 uM after 24 hrs by wound healing assay; format: functional; details: MDA-MB-231, 24 h
MDA-MB-231 [8] = experiment: Cytotoxicity against human MDA-MB-231 cells assessed as cell viability up to 10 uM after 24 hrs by MTT assay relative to control; format: cell-based; details: mda-mb-231, 24 h
MDA-MB-231 [9] = experiment: Antiinvasion activity in human MDA-MB-231 cells reduction of cell assessed as inhibition of FBS-induced cell invaded to lower surface at 10 uM after 24 hrs; format: functional; details: MDA-MB-231, 24 h
MDA-MB-231 [10] = experiment: Antiinvasion activity in human MDA-MB-231 cells reduction of cell assessed as inhibition of FBS-induced cell invaded to lower surface at 2 uM after 24 hrs; format: functional; details: MDA-MB-231, 24 h
MDA-MB-231 [11] = experiment: Inhibition of cell migration in human MDA-MB-231 cells reduction of cell assessed as cells migrated into scratched area at 2 uM after 24 hrs by wound healing assay; format: functional; details: MDA-MB-231, 24 h
MDA-MB-231 [12] = experiment: Inhibition of cell migration in human MDA-MB-231 reduction of cell assessed as cells migrated into scratched area at 5 uM after 24 hrs by wound healing assay; format: functional; details: MDA-MB-231, 24 h
[13] = biological target: Urokinase-type plasminogen activator (Homo sapiens) (UniProt P00749); experiment: Inhibition of uPA activity in human MDA-MB-231 cells at 5 uM; format: cell-based; set-up: scale not given: the % may be the effect or the level left
MDA-MB-231 [14] = experiment: Down-regulation of uPA mRNA expression in human MDA-MB-231 cells after 24 hrs by RT-PCR analysis; format: functional, cell-based
[15] = biological target: Ras-related C3 botulinum toxin substrate 1 (Homo sapiens) (UniProt P63000); experiment: Inhibition of Rac1-mediated WAVE-2/Arp2/3 expression in human MDA-MB-231 cells after […] by Western blotting analysis; format: cell-based
[16] = biological target: Ras-related C3 botulinum toxin substrate 1 (Homo sapiens) (UniProt P63000); experiment: Inhibition of Rac1 in human MDA-MB-231 cells at 2 uM after 30 mins by G-LISA activity assay; format: cell-based
MDA-MB-231 [17] = experiment: Down-regulation of uPAR mRNA expression in human MDA-MB-231 cells at 2 to 10 uM after 24 hrs by RT-PCR analysis; format: functional, cell-based

## COc1cc(/C=C/c2ccc(O)cc2)cc(OC)c1 [PTEROSTILBENE]
[1]
  viability at 24 h, 40 µM: 40%
MDA-MB-231 [2]
  inhibition at 5 µM: 29%
[3]
  inhibition: 27%
Homo sapiens
  inhibition: Active
[4]
  Activity: 61%
[5]
  inhibition: 22%
MDA-MB-231 [6]
  inhibition: Dose-dependent effect
MDA-MB-231 [7]
  inhibition at 10 µM: 76%
MDA-MB-231 [8]
  Activity: Non-toxic
MDA-MB-231 [9]
  inhibition at 10 µM: 38%
MDA-MB-231 [10]
  inhibition at 2 µM: 20%
MDA-MB-231 [11]
  inhibition at 2 µM: 25%
MDA-MB-231 [12]
  inhibition at 5 µM: 59%
[13]
  Activity: 25%
MDA-MB-231 [14]
  Activity: Dose-dependent effect
[15]
  inhibition: Dose-dependent effect
[16]
  inhibition: 14%
MDA-MB-231 [17]
  Activity: inactive
